{
  "source": "patent US20220195056A1",
  "about": "“METHOD OF TREATING KELOIDS” (Icahn School of Medicine at Mount Sinai, priority 2019, published 2022)",
  "type_in_all_cases": "in vivo, human",
  "key": {"[1]": {"system": "keloid", "experiment": "Prior treatment of keloid nodules with intralesional triamcinolone injections", "conditions": "before dupilumab"}, "[2]": {"system": "keloid", "experiment": "Clinical keloid response to dupilumab in a subject with severe atopic dermatitis and two keloid nodules", "from_the_text": "(A) On the right popliteal fossa, a large depigmented keloid (denoted by the dotted arrow) measured at 3.5 cm horizontal, 2.8 cm vertical, and 2.1 cm, and a smaller adjacent keloid (denoted by the bold arrow) measured at 1.2 cm horizontal, 0.7 cm vertical, and 1.1 cm, August 2018. […] Images to scale and taken with different perspectives. Th2-specific inflammatory biomarkers (C-E) measured by quantitative real-time PCR in healthy skin and keloid non-lesional (NL) and lesional (LS) skin. Black stars: significance of comparison between keloid skin and controls. Black lines within boxes represent median values; bold red lines represent mean values. Each black dot represents an individual patient; ^+P<0.1, *P<0.05.\nA subject afflicted with severe atopic dermatitis (AD) (body surface area/BSA 70%; SCORing of AD/SCORAD, 50; Eczema Area and Severity Index/EASI, 33) post-inflammatory hypopigmentation, and two keloid nodules was treated with dupilumab. […] Both nodules were present for more than 2 years. […] The subject received 300 mg subcutaneous dupilumab injections for severe AD, administered every 2 weeks for a month."}, "[3]": {"system": "keloids", "experiment": "Clinical keloid response to dupilumab injections in African American keloid patients", "description": "(A) The image depicts keloids before treatment with dupilumab in a patient. (B) The image depicts keloids in a patient after 1.5 months of treatment with dupilumab (subcutaneous injections of 300 mg every week, after 600 mg induction at baseline). (C) The image depicts keloids in the same patient at the end of the third month of treatment with dupilumab.\nA subject with keloids, but without other dermatological symptoms, was treated with dupilumab. The subject received 300 mg subcutaneous dupilumab injections, administered weekly.\nThe inventors observed a significant keloid reduction in yet a third patient treated with dupilumab. Another patient with keloids, but no other dermatological symptoms, received weekly subcutaneous injections of dupilumab (300 mg) and observed a positive response.\nIn addition, only the weekly injections were sufficient to maintain the size reduction and to treat the pain and irritation associated with the keloids in the afflicted patients."}, "[4]": {"conditions": "after 3 months, weekly subcutaneous 300 mg"}, "[5]": {"conditions": "after 3 months, weekly subcutaneous 300 mg after 600 mg induction"}},
  "note": "“Also recorded” adds a separate entry of the source.",
  "data": [
    {"molecule": "C[C@]12C=CC(=O)C=C1CC[C@H]1[C@@H]3C[C@@H](O)[C@](O)(C(=O)CO)[C@@]3(C)C[C@H](O)[C@@]12F", "note": "[triamcinolone]", "values": [
      {"measurement": "keloid response to prior intralesional treatment", "setting": "[1]", "value": "minimal improvement"}
    ]},
    {"molecule": "dupilumab", "values": [
      {"measurement": "outcome of the smaller adjacent keloid", "setting": "[2]; after dupilumab treatment (seven months), before treatment 1.2 cm horizontal, 0.7 cm vertical, 1.1 cm", "value": "complete disappearance"},
      {"measurement": "larger keloid nodule size, third (unnamed) dimension, after dupilumab", "setting": "[2]; post-treatment, before treatment 2.1 cm", "value": 0.9, "unit": "cm"},
      {"measurement": "larger keloid nodule size, vertical, after dupilumab", "setting": "[2]; post-treatment, before treatment 2.8 cm", "value": 1, "unit": "cm"},
      {"measurement": "larger keloid nodule size, horizontal, after dupilumab", "setting": "[2]; post-treatment, before treatment 3.5 cm", "value": 1.6, "unit": "cm"},
      {"measurement": "reduction in size of the large keloid", "setting": "[2]; seven months after dupilumab treatment, 300 mg subcutaneous every 2 weeks for a month, right popliteal fossa", "value": "> 50", "unit": "%"},
      {"measurement": "change in keloid size (FIG. 3 patient)", "setting": "[3]; 3 months, 300 mg subcutaneous every week after 600 mg induction at baseline", "value": "noticeable reduction in the keloid size; also recorded: reduction in size and depth"},
      {"measurement": "keloid shrinkage in diameter (FIG. 5 patient)", "setting": "[3]; [4]", "value": 0.8, "unit": "cm"},
      {"measurement": "keloid shrinkage in height (FIG. 5 patient)", "setting": "[3]; [4]", "value": 0.5, "unit": "cm"},
      {"measurement": "keloid shrinkage in diameter (FIG. 4 patient)", "setting": "[3]; [5]", "value": 2, "unit": "cm"},
      {"measurement": "keloid shrinkage in height (FIG. 4 patient)", "setting": "[3]; [5]", "value": 0.5, "unit": "cm"},
      {"measurement": "efficacy of every other week injections on keloids", "setting": "[3]; injections every other week", "value": "insufficient to treat keloids"},
      {"measurement": "patients with reduction in keloid size and shape", "setting": "[3]; weekly dupilumab injections, African American patients", "value": "three of the three"},
      {"measurement": "change in keloid size (third patient, FIG. 5)", "setting": "[3]; weekly subcutaneous 300 mg", "value": "noticeable reduction in the keloid size"}
    ]}
  ]
}
